What was measured:
NCI-H1975 [1] = assay: Induction of apoptosis in human NCI-H1975 cells assessed as viable cells at 5 uM after 48 hrs by annexin V/FITC-propidium iodide staining-based flow cytometric method ( Rvb = 82.5%); assay type: functional; settings: NCI-H1975, 48 h, read-out: Activity
Mus musculus [2] = assay: Toxicity in Balb/c mouse implanted with mouse C26 cells assessed as mouse death at 100 mg/kg, po qd treated for 10 days; assay type: organism-based; settings: in vivo, 240 h
NCI-H1975 [3] = assay: Induction of apoptosis in human NCI-H1975 cells assessed as early apoptotic cells at 20 uM after 48 hrs by annexin V/FITC-propidium iodide staining-based flow cytometric method ( Rvb = 6.09%); assay type: functional
Mus musculus [4] = assay: Toxicity in Balb/c mouse xenografted with human NCI-H1975 cells assessed as effect on heart morphology at 5 to 20 mg/kg, iv treated every 2 days for 9 days; assay type: organism-based; settings: in vivo
NCI-H358 = assay: Antiproliferative activity against human NCI-H358 cells after 72 hrs by MTT assay; assay type: functional, cell-based; settings: NCI-H358, 72 h
Mus musculus [5] = assay: Toxicity in Balb/c mouse xenografted with human NCI-H1975 cells assessed as effect on liver size at 5 to 20 mg/kg, iv treated every 2 days for 9 days; assay type: organism-based; settings: in vivo
A549 = assay: Antiproliferative activity against human A549 cells after 72 hrs by MTT assay; assay type: functional, cell-based; settings: A549, 72 h
NCI-H1975 [6] = assay: Potency index, ratio of IC50 for honokiol to IC50 for test compound for antiproliferative activity against human NCI-H1975 cells after 72 hrs by MTT assay; assay type: functional
NCI-H1975 [7] = assay: Induction of apoptosis in human NCI-H1975 cells assessed as decrease in Cdk4 level after 24 hrs by Western blot analysis; assay type: functional, cell-based
PC-9 = assay: Antiproliferative activity against human PC9 cells after 72 hrs by MTT assay; assay type: functional, cell-based; settings: PC-9, 72 h
Mus musculus [8] = assay: Toxicity in Balb/c mouse xenografted with human NCI-H1975 cells assessed as induction of vascular irritation at 5 to 20 mg/kg, iv treated every 2 days for 9 days; assay type: organism-based; settings: in vivo
HUVEC = assay: Antimigratory activity against HUVEC after 24 to 48 hrs by phase contrast/fluorescence microscopic analysis; assay type: functional, cell-based; settings: Homo sapiens
NCI-H1975 [9] = assay: Induction of apoptosis in human NCI-H1975 cells assessed as late apoptotic cells at 20 uM after 48 hrs by annexin V/FITC-propidium iodide staining-based flow cytometric method ( Rvb = 10.4%); assay type: functional
HCC827 [10] = assay: Antiproliferative activity against human HCC827 cells after 72 hrs by MTT assay; assay type: functional, cell-based; settings: HCC827, 72 h
NCI-H1975 [11] = assay: Cell cycle arrest in human NCI-H1975 cells assessed as accumulation at G0/G1 phase at 5 uM after 24 hrs by propidium iodide staining-based flow cytometric analysis (reference value: 56.11%); assay type: functional
Mus musculus [12] = assay: Toxicity in Balb/c mouse xenografted with human NCI-H1975 cells assessed as effect on kidney size at 5 to 20 mg/kg, iv treated every 2 days for 9 days; assay type: organism-based; settings: in vivo
HCC827 [13] = assay: Potency index, ratio of IC50 for magnolol to IC50 for test compound for antiproliferative activity against human HCC827 cells after 72 hrs by MTT assay; assay type: functional
Mus musculus [14] = assay: Toxicity in Balb/c mouse xenografted with human NCI-H1975 cells assessed as mouse death at 5 to 20 mg/kg, iv treated every 2 days for 9 days and measured every 2 days after compound dosing; assay type: organism-based; settings: in vivo
NCI-H1975 [15] = assay: Cell cycle arrest in human NCI-H1975 cells assessed as accumulation at S phase at 20 uM after 24 hrs by propidium iodide staining-based flow cytometric analysis (reference value: 22.93%); assay type: functional
NCI-H1650 = assay: Antiproliferative activity against human NCI-H1650 cells after 72 hrs by MTT assay; assay type: functional, cell-based; settings: NCI-H1650, 72 h
NCI-H1975 [16] = assay: Antitumor activity against human NCI-H1975 cells xenografted in Balb/c mouse assessed as change in tumor mass at 10 mg/kg, iv treated every 2 days for 9 days and measured every 2 days after compound dosing relative to control; assay type: functional
NCI-H1975 [17] = assay: Antitumor activity against human NCI-H1975 cells xenografted in Balb/c mouse assessed as change in tumor mass at 10 mg/kg, po qd treated for 18 days and measured every 2 days after compound dosing relative to control; assay type: functional
[18] = Antiproliferative activity against human SPC-A1 cells after 72 hrs by MTT assay; assay type: functional, cell-based; settings: SPCA1, 72 h
NCI-H1975 [19] = assay: Induction of apoptosis in human NCI-H1975 cells assessed as necrotic cells at 5 uM after 48 hrs by annexin V/FITC-propidium iodide staining-based flow cytometric method ( Rvb = 1.01%); assay type: functional
Mus musculus [20] = assay: Toxicity in Balb/c mouse xenografted with human NCI-H1975 cells assessed as mouse death at 10 to 100 mg/kg, po qd treated for 18 days and measured every 2 days after compound dosing; assay type: organism-based; settings: in vivo
Mus musculus [21] = assay: Toxicity in Balb/c mouse xenografted with human NCI-H1975 cells assessed as change in body weight at 5 mg/kg, iv treated every 2 days for 9 days and measured every 2 days after compound dosing ( Rvb = 2.89%); assay type: organism-based; settings: in vivo
NCI-H1975 [22] = assay: Cell cycle arrest in human NCI-H1975 cells assessed as accumulation at S phase at 10 uM after 24 hrs by propidium iodide staining-based flow cytometric analysis (reference value: 22.93%); assay type: functional
Mus musculus [23] = assay: Toxicity in Balb/c mouse xenografted with human NCI-H1975 cells assessed as effect on lung size at 5 to 20 mg/kg, iv treated every 2 days for 9 days; assay type: organism-based; settings: in vivo
Mus musculus [24] = assay: Toxicity in Balb/c mouse xenografted with human NCI-H1975 cells assessed as effect on heart size at 5 to 20 mg/kg, iv treated every 2 days for 9 days; assay type: organism-based; settings: in vivo
Mus musculus [25] = assay: Toxicity in Balb/c mouse xenografted with human NCI-H1975 cells assessed as effect on kidney morphology at 5 to 20 mg/kg, iv treated every 2 days for 9 days; assay type: organism-based; settings: in vivo
NCI-H1975 [26] = assay: Induction of apoptosis in human NCI-H1975 cells assessed as late apoptotic cells at 5 uM after 48 hrs by annexin V/FITC-propidium iodide staining-based flow cytometric method ( Rvb = 10.4%); assay type: functional
Mus musculus [27] = assay: Toxicity in Balb/c mouse xenografted with human NCI-H1975 cells assessed as effect on liver morphology at 5 to 20 mg/kg, iv treated every 2 days for 9 days; assay type: organism-based; settings: in vivo
NCI-H1975 [28] = assay: Cell cycle arrest in human NCI-H1975 cells assessed as accumulation at S phase at 5 uM after 24 hrs by propidium iodide staining-based flow cytometric analysis (reference value: 22.93%); assay type: functional
NCI-H1975 [29] = assay: Antiproliferative activity against human NCI-H1975 cells after 72 hrs by MTT assay; assay type: functional, cell-based; settings: NCI-H1975, 72 h
NCI-H441 = assay: Antiproliferative activity against human H441 cells after 72 hrs by MTT assay; assay type: functional, cell-based; settings: NCI-H441, 72 h
[30] = Antitumor activity against mouse C26 cells implanted in Balb/c mouse assessed as tumor growth inhibition at 100 mg/kg, po qd and measured every 2 days relative to control; assay type: functional; settings: 48 h, read-out: TGI
NCI-H460 = assay: Antiproliferative activity against human H460 cells after 72 hrs by MTT assay; assay type: functional, cell-based; settings: NCI-H460, 72 h

In the case of `C=CCc1ccc(O)c(-c2cc(CC=C)cc(CN3CCC(N)CC3)c2O)c1`, the viability at 5 µM (NCI-H1975 [1]) is reported as 66.5%, the Activity (Mus musculus [2]) is reported as “Non-Toxic” and the Activity (NCI-H1975 [3]) is reported as 46.8%. The Activity (Mus musculus [4]) was “Non-Toxic”, the IC50 (NCI-H358) was 7.43 µM and the Activity (Mus musculus [5]) was “Non-Toxic”. For the same molecule, the IC50 (A549) was 5.48 µM, the “Ratio IC50” value (NCI-H1975 [6]) was 4 and the Activity (NCI-H1975 [7]) was “Dose-dependent effect”. The IC50 (PC-9) was 12.5 µM, the Activity (Mus musculus [8]) was “Non-Toxic” and the Activity (HUVEC) was “Dose-dependent effect”. For the same molecule, the Activity (NCI-H1975 [9]) was 49.1%, the IC50 (HCC827 [10]) was 5.01 µM and the Activity (NCI-H1975 [11]) was 62.26%. The Activity (Mus musculus [12]) was “Non-Toxic”, the “Ratio IC50” value (HCC827 [13]) was 8 and the Activity (Mus musculus [14]) was “Non-Toxic”. The Activity (NCI-H1975 [15]) was 12.63%, the IC50 (NCI-H1650) was 4.81 µM and the Activity (NCI-H1975 [16]) was 57.5%. It also gave an Activity (NCI-H1975 [17]) of 46.3%, an IC50 [18] of 7.89 µM and an Activity (NCI-H1975 [19]) of 0.52%. The Activity (Mus musculus [20]) was “Non-Toxic”, the Activity (Mus musculus [21]) was 4.4% and the Activity (NCI-H1975 [22]) was 18.57%. The Activity (Mus musculus [23]) was “Non-Toxic”, the Activity (Mus musculus [24]) was “Non-Toxic” and the Activity (Mus musculus [25]) was “Non-Toxic”. For the same molecule, the Activity (NCI-H1975 [26]) was 26.3%, the Activity (Mus musculus [27]) was “Non-Toxic” and the Activity (NCI-H1975 [28]) was 22.39%. It also gave an IC50 (NCI-H1975 [29]) of 5.61 µM, an IC50 (NCI-H441) of 5.63 µM and an inhibition in vivo at 100 mg/kg [30] of 47.9%. It also gave an IC50 (NCI-H460) of 5.98 µM.
